The values below come from US7674823B2, “DNA-PK inhibitors” (Cancer Research Technology Limited, priority 2001, dated 2010).

Each structure is given as a SMILES string. Read-outs that look alike come from different tables or passages of the source. A value given as a limit tells only on which side of the number the result lay.

The target of data set [1] is T1, Mammalian DNA-PK, isolated from Hela cell nuclear extract (Homo sapiens, UniProt P78527).
T1 construct: Mammalian DNA-PK, isolated from Hela cell nuclear extract; endogenous in cells; host or cells: HeLa cell nuclear extract (purified per Gell and Jackson 1999)
In words: DNA-PK inhibition assay (33P-ATP, filter binding). The data set is classed as biochemical. The method, boiled down: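 DNA-PK from HeLa nuclear extract preincubated with compound 10 min at 30 °C, then started with 50 μM Na-ATP final, ^33P-γATP and 30mer dsDNA (10 ng/μl), run 45 min at 30 °C.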

A further data set deals with HeLa cells. Kind of data set: Enhancement Ratio: cell growth inhibition (SRB assay) after 2 Gy irradiation. The data set is classed as cell-based. Conditions: inhibitor 25 μM. The procedure:
DNA-PK inhibitors were used at a fixed concentration of 25 micromolar. Radiation was delivered by a Faxitron 43855D X-ray system at a dose rate of 1Gy per minute The Enhancement ratio at 2 Gy irradiation was calculated from the formula: [formula] Cell growth was assessed using the sulforhodamine B (SRB) assay (Skehan, P., Storung, R., Scudiero, R., Monks, […]., Kenny, S. and Boyd, M. R. (1990) New calorimetric cytotoxicity assay for anticancer-drug screening. J. Natl. Cancer Inst. 82:1107-1112). 400 HeLa cells were seeded into each well of a flat-bottomed 48-well microtiter plate in a volume of 200 μl and incubated for 6 h at 37° C. […] Cells were allowed to grow for a further 1 h before irradiation or mock irradiation. Cells untreated with DNA-PK inhibitor or unirradiated were used as a control. Cells treated with DNA-PK inhibitor alone were used to assess the growth inhibition by the DNA-PK inhibitor. Cells were left for a further 16 h before replacing the media and allowing the cells to grow for a further 6 days at 37° C. The media was then removed and the cells fixed with 200 μl of ice cold 10% (w/v) trichloroacetic acid. The plates were incubated at 4° C. for 20 minutes and then washed four times with water. Each well of cells was then stained with 200 μl of 0.4% (w/v) SRB in 1% acetic acid for 20 minutes before washing four times with 1% acetic acid. Plates were then dried for 2 h at room temperature. The dye from the stained cells was solubilized by the addition of 100 μl of 10 mM Tris Base into each well. Plates were gently shaken and left at room temperature for 30 minutes before measuring the optical density at 564 nm on a Microquant microtiter plate reader.
Background: Sulforhodamine B stains cellular protein and so reports cell mass.

Data set [2] relates to PI 3-kinase (p110α/p85α). Kind of data set: PI 3-kinase inhibition assay. The data set is classed as biochemical. Conditions: selectivity ratio from the IC50s for PI 3-kinase and DNA-PK. The text has this: (§1) In order to assess the inhibitory action of the compounds against PI 3-kinase in vitro, the following assay was used to determine IC50 values.
(§2) Baculoviral recombinant GST-fused PI 3-kinase (p110α/p85α) was purified from Sf9 insect cells using GSH-sepharose affinity chromatography as described (Wymann, M. T et al., (1996) Wortmannin inactivates phosphoinositide 3-kinase by covalent modification of Lys-802, a residue involved in the phosphate transfer reaction. Mol. Cell Biol. 16:1722-1733). PI 3-kinase (1 μl) was diluted in reaction buffer (89 μl of 50 mM Hepes pH 7.5, 150 mM NaCl, 0.1 mM Sodium Orthovanadate, containing 20 μg of phosphatidylinositol) and varying concentrations of inhibitor compound added. […] Reactions were incubated for a further 20 minutes at 37° C., before quenching with the addition of 400 μl of chloroform/methanol (1:1). Reactions were acidified by the addition of 200 μl of 1M HCl, before separation of the organic and aqueous phases by centrifugation at 10,000 g for 30 seconds. The organic phase was transferred to a fresh tube and washed twice with 150 μl of 1M hydrochloric acid/methanol (1:1), discarding the aqueous phase. The washed reaction product was then placed in a white 96-well plate with 100 μl of scintillation fluid and transferred to a TopCount NXT for scintillation counting. Counts per minute, following a one minute counting time, were recorded for each reaction. The inhibition of PI 3-kinase activity by compounds was calculated as described above for the DNA-PK assay.
(§3) The selectivity was determined by the following equation: […]

The target of data set [3] is T2, PI 3-kinase (p110α/p85α) (UniProt P32871).
T2 construct: other: GST-fused p110α/p85α
In words: PI 3-kinase inhibition assay. It counts as biochemical. Conditions: GST-fused p110α/p85α.
Description: as §1, §2, §3

The mark [4] stands for this setting: IC50 of less than about 1 μM and/or % inhibition of more than about 50 at 1 μM, read-out: DNA-PK inhibition IC50 (particular efficacy).
Setting [5] is: concentration at which 50% of the enzyme activity is inhibited, read-out: DNA-PK Inhibition IC50.

As usually defined, the IC50 is the midpoint of a concentration-inhibition curve. For orientation: melting point means the temperature of the solid-liquid transition. `O=c1cc(N2CCOCC2)oc2c3c(ccc12)CCCC3` [Compound 297, 7,8,9,10-tetrahydro-benzo[h]-2-(morpholin-4-yl)-chromen-4-one] yielded a melting point of 220 to 222 °C. For the same compound, the half-inhibitory concentration (IC50) in data set [1] (setting [4]) was less than 1 µM. The IC50 in data set [1] (setting [5]) is 0.5 µM. Further, the “Enhancement Ratio (ER)” value in the data set with HeLa cells was found to be 2.12. The “Δ(DNA-PK/PI 3-K)” value in the data set with PI 3-kinase (p110α/p85α) [2] was found to be 36. The IC50 on PI 3-kinase (p110α/p85α) [3] was 18 µM.
Compound `CC1CN(c2cc(=O)c3ccc4ccccc4c3o2)CCO1` (stereo not drawn) [Compound 317, 2-(2-Methyl-morpholin-4-yl)-benzo[h]chromen-4-one] returned a melting point of 181 to 183 °C. The half-maximal inhibitory concentration (IC50) in data set [1] (setting [4]) is less than 1 µM. Also, the concentration for half-maximal inhibition (IC50) in data set [1] (setting [5]) was determined as 0.3 µM. Moreover, the “Enhancement Ratio (ER)” value with HeLa cells came to 3.62. Besides, the “Δ(DNA-PK/PI 3-K)” value with PI 3-kinase (p110α/p85α) [2] worked out at 8. The midpoint of inhibition at PI 3-kinase (p110α/p85α) [3], the IC50, lay at 2.5 µM.
Turning to `O=C1c2ccccc2C(=O)N1CCCOc1ccc2c(=O)cc(N3CCOCC3)oc2c1` [Compound 422, N-[3-(2-(Morpholin-4-yl)-4-oxo-4H-chromen-7-yloxy)-propyl]-phthalimide], the melting point was 210 to 211 °C. Moreover, the 50% inhibitory concentration (IC50) in data set [1] (setting [4]) is less than 1 µM. Besides, the IC50 in data set [1] (setting [5]) was 0.5 µM. Further, the “Enhancement Ratio (ER)” value in the data set on HeLa cells stood at 1.68. In addition, the “Δ(DNA-PK/PI 3-K)” value in the data set with PI 3-kinase (p110α/p85α) [2] is listed as 12. Moreover, the half-inhibitory concentration (IC50) on PI 3-kinase (p110α/p85α) [3] was determined as 6 µM.
